{
  "source": "a melting point compilation (Tetko et al.; mined from patent text by program, amines drawn as free bases though some values may be those of a salt)",
  "data": [
    {"units": {"melting point": "°C"}, "values": [
      {"compound": "CON(C(=O)Nc1nc(OCC(F)(F)F)cc(OCC(F)(F)F)n1)c1ccc(Cl)cc1", "melting point": "275 to 276"},
      {"compound": "C=CCCc1nc(N)n2nc(-c3ccco3)nc2n1", "melting point": "194 to 196"},
      {"compound": "CC(Br)C(=O)N1C(=O)c2ccccc2OC12CCCCC2", "note": "(stereo not given)", "melting point": "74 to 76"},
      {"compound": "CN1CCN(c2cccc3c2C[C@H](NC(=O)CCc2ccccc2)CC3)CC1", "melting point": "184 to 186"},
      {"compound": "O=C1Nc2ccc(I)cc2C1=NNC(=O)c1ccc(Oc2ccc(CN3CCOCC3)cc2)cc1", "melting point": 252},
      {"compound": "C(=C\\c1nc(COc2ccc(CCCCn3ccnn3)cc2)co1)/c1ccccc1", "melting point": "125 to 126"},
      {"compound": "O=C(NCCSCc1cccc(Cl)c1)c1c([N+](=O)[O-])cccc1[N+](=O)[O-]", "melting point": "139 to 140"},
      {"compound": "CCOc1ccc(-c2cc(C(F)(F)F)n3ncc(-c4ccncc4)c3n2)cc1C(F)(F)F", "melting point": 233},
      {"compound": "COc1cccc([C@H]2O[C@H](CC(=O)NCc3ccc(CC(=O)O)cc3)C(=O)N(CC(C)(C)CO)c3ccc(Cl)cc32)c1OC", "melting point": "129 to 132"},
      {"compound": "CN(C(=O)c1cccc(C(=C2CC3CCC(C2)N3C)c2ccccc2)c1)c1cccc(F)c1", "melting point": "122 to 125"},
      {"compound": "COC(=O)/C=C/c1ccc(N2CCCC2=O)nc1", "melting point": "151 to 160"},
      {"compound": "c1ccc(COc2ccc(Nc3ccccn3)cc2)cc1", "melting point": "110 to 112"},
      {"compound": "Cc1ccc(C(=O)NC(CF)NC(=S)Nc2cccc([N+](=O)[O-])c2)cc1", "note": "(stereo not given)", "melting point": "148 to 155"},
      {"compound": "Cc1cn(C2COC(CO)C(O)C2)c(=O)[nH]c1=O", "note": "(stereo not given)", "melting point": "87 to 89"},
      {"compound": "CCOC(=O)c1cnc(S(=O)(=O)Cc2ccccc2)n1-c1c(CC)cccc1CC", "melting point": "62 to 66"},
      {"compound": "COC(=O)c1ccc2c(Cl)c(C(=O)Cl)sc2c1", "melting point": "259 to 260"},
      {"compound": "CNCC1Cc2cc(-c3cccc(F)c3)cc(F)c2O1", "note": "(stereo not given)", "melting point": "> 250"},
      {"compound": "CCCCCC/C=C/CCCCCCCCCC(=O)Nc1nc(CC(=O)O)cs1", "melting point": "116 to 117"},
      {"compound": "O=C(c1cccs1)c1cnn2c(-c3cccc(-c4nnn(Cc5ccncc5)n4)c3)ccnc12", "melting point": 170},
      {"compound": "O=C(NCCO)c1cccc(-c2cccc3nn(Cc4ccc(F)c(F)c4)cc23)c1", "melting point": "116 to 117"},
      {"compound": "COc1ccc(Cn2c(=O)c3ccccc3n(CCCCCl)c2=O)cc1", "melting point": "123 to 124"},
      {"compound": "CCc1ccc(Cn2cc(-c3ccc(OC)cc3)ccc2=O)cn1", "melting point": 130},
      {"compound": "COCN1C(=O)N(c2ccc(C#N)c(OC)c2)C(=O)C1(C)c1ccc(O)cc1", "note": "(stereo not given)", "melting point": 141},
      {"compound": "O=C1CCC(c2ccc(-n3cnc4c3CCCC4)cc2)=NN1", "melting point": "296 to 297"},
      {"compound": "O=C(O)C(=O)CC(=O)c1cn(CCCCc2ccccc2)c2ccccc2c1=O", "melting point": "136 to 138"},
      {"compound": "C#CC1CC2(CC#CC)C(O)CCC2C2C=CC3=CC(=O)CCC3C12", "note": "(stereo not given)", "melting point": "195 to 198"},
      {"compound": "CCCCc1oc2ccccc2c1C(O)c1cc(I)c(OCCN(CC)CC)c(I)c1", "note": "(stereo not given)", "melting point": "106 to 107"},
      {"compound": "CCc1nnc2c(NC3CCCCC3)nc3ccccc3n12", "melting point": "217 to 220"},
      {"compound": "N#CCCNC(=O)c1cccc(-c2cccc3nn(Cc4cccc(Cl)c4)cc23)c1", "melting point": "185 to 186"},
      {"compound": "CS(=O)(=O)c1ccc(C(=O)O)c(F)c1", "melting point": "187 to 188"},
      {"compound": "COC(=O)c1cccc(C)c1NS(=O)(=O)c1nc2nc(C)cc(C)n2n1", "melting point": "181 to 182"},
      {"compound": "N#Cc1cn(-c2c(Cl)cc(C(F)(F)F)cc2Cl)nc1C(F)(F)F", "melting point": "116 to 118"},
      {"compound": "O=C1NC(C(=O)O)CCCCCCCCCCC1CS", "note": "(stereo not given)", "melting point": "170 to 172"},
      {"compound": "COc1ccc(C(O)c2cccnc2)cc1OC", "note": "(stereo not given)", "melting point": "76 to 78"},
      {"compound": "O=C1OCCC1N1C(=O)c2cccc3cccc(c23)C1=O", "note": "(stereo not given)", "melting point": "310 to 312"},
      {"compound": "CC(C)(C(=O)O)c1ccc(OCCNC(=O)C2Cc3ccccc3N2S(=O)(=O)c2ccc(-c3cc(C(F)(F)F)ccc3Cl)cc2)cc1", "note": "(stereo not given)", "melting point": "92 to 100"},
      {"compound": "COc1ccc(-c2cc(=O)n(C)c(=O)n2C)cc1OC", "melting point": "118 to 120"},
      {"compound": "Nc1cc(-c2cccnc2)nc(-c2ccco2)n1", "melting point": 233},
      {"compound": "N#CC1CN1Cc1ccc(C(=O)O)s1", "note": "(stereo not given)", "melting point": "108 to 111"},
      {"compound": "COC(=O)C1(c2ccc(OCCNC(=O)C3Cc4ccccc4N3S(=O)(=O)c3ccc(-c4cc(C(F)(F)F)ccc4Cl)cc3)cc2)CC1", "note": "(stereo not given)", "melting point": "64 to 72"},
      {"compound": "COc1ccc2cc(-c3ccc(S(C)(=O)=O)cc3)ccc2n1", "melting point": "182 to 184"},
      {"compound": "Nc1cc(O)ccc1/C=C/c1ccc(O)cc1", "melting point": "229 to 232"},
      {"compound": "CCCCCCn1c(=O)n(C2OC(CO)C(O)C2O)c2nc(N)[nH]c(=O)c21", "note": "(stereo not given)", "melting point": "196 to 199"},
      {"compound": "OCCC=Cc1ccc(-c2ccccc2)cc1", "melting point": 142},
      {"compound": "CCn1ncc2c(NCC3CCCCC3)c3cc(S(C)=O)ccc3nc21", "note": "(stereo not given)", "melting point": "186 to 187"},
      {"compound": "O=C(Nc1cccc(NC2=CC(=O)c3ccccc3C2=O)c1)c1ccccc1", "melting point": 185},
      {"compound": "CC1=CC(c2cccc(Cl)c2)C=C(CN2C(=O)c3ccccc3C2=O)N1", "note": "(stereo not given)", "melting point": "128 to 130"},
      {"compound": "CCOC(=O)CCCOc1cc(C=Cc2ccc3ccc(Br)cc3n2)ccc1Cl", "melting point": "215 to 220"},
      {"compound": "COc1cccc(C(CCCCCCc2ccccc2)CNC(=O)Cc2c(Cl)cncc2Cl)c1", "note": "(stereo not given)", "melting point": "97 to 98"},
      {"compound": "CC(C)(SC(F)(F)F)C(=O)C(Oc1ccc(Cl)cc1)n1cncn1", "note": "(stereo not given)", "melting point": 66}
    ]}
  ]
}
